The values below come from publication PMC11270734 (ACS Omega, 2024).

Some results are limits rather than exact numbers.

The test system of data set [1] is chloroquine-sensitive P. falciparum (3D7 strain). It counts as cell-based. The conditions noted are these: Plasmodium falciparum, 3D7, 48 h, read-out: MEAN IC50 ± SE.
The nature of the next data set: Cytotoxicity, MTT assay. It counts as cell-based. The note with it: human, HEK-293 cells.

For orientation: IC50 means the concentration that inhibits the measured activity by half. By CC50 is commonly meant the concentration at which the toxic effect on the cells reaches its halfway point. A higher CC50 goes with better tolerance by the cells. As for `CC1(c2ccc(C#N)cc2)OOC2(CCN(C(=O)c3ccccc3)CC2)OO1` [3r], the IC50 in data set [1] was 15.7 ± 0.78 nM. In the data set “Cytotoxicity, MTT assay”, this compound returned a CC50 at 72 h greater than 100 µg/mL. On the same counts, the results for `CCCC1(C)OOC2(CCN(C(=O)c3ccccc3)CC2)OO1` [3g] are 43.4 ± 2.38 nM and greater than 100 µg/mL. The like results for `CCCCC1(C)OOC2(CCN(C(=O)c3ccccc3)CC2)OO1` [3j] were, in that order, 17.5 ± 1.24 nM and greater than 100 µg/mL. On the same counts, the results for `O=Cc1ccc(C(=O)N2CCC3(CC2)OOC2(OO3)C3CC4CC(C3)CC2C4)cc1` [3u] are 6.35 ± 0.55 nM and greater than 100 µg/mL. Take `CC1(c2ccc(Cl)cc2)OOC2(CCN(C(=O)c3ccccc3)CC2)OO1` [3q]: the IC50 in data set [1] amounted to 11.8 ± 0.8 nM. The compound also showed a CC50 at 72 h in “Cytotoxicity, MTT assay” greater than 100 µg/mL. With `CC1(C)OOC2(CCN(C(=O)c3ccccc3)CC2)OO1` [3e], the IC50 in data set [1] came to 29.9 ± 1.28 nM. The same compound had a CC50 at 72 h in the data set “Cytotoxicity, MTT assay” greater than 100 µg/mL. On to `CC(C)CC1(C)OOC2(CCN(C(=O)c3ccccc3)CC2)OO1` [3k], for which the IC50 in data set [1] was 18.9 ± 2.12 nM. In the data set “Cytotoxicity, MTT assay”, the CC50 at 72 h was greater than 100 µg/mL. Take `O=C(c1ccccc1)N1CCC2(CC1)OOC1(CCCCCC1)OO2` [3c]: in data set [1], the IC50 was 21.9 ± 1.79 nM. In the data set “Cytotoxicity, MTT assay”, this compound gave a CC50 at 72 h greater than 100 µg/mL. The like results for `CCC1(C)OOC2(CCN(C(=O)c3ccccc3)CC2)OO1` [3f] were, in that order, 42.5 ± 3.04 nM and greater than 100 µg/mL. `C[C@@H]1CC[C@H]2[C@@H](C)C(=O)O[C@@H]3O[C@@]4(C)CC[C@@H]1[C@]32OO4` [artemisinin, reference compound] displayed a CC50 at 72 h in the data set “Cytotoxicity, MTT assay” greater than 100 µg/mL. As to `CC(C)C1(C)OOC2(CCN(C(=O)c3ccccc3)CC2)OO1` [3h], the IC50 in data set [1] was 41.2 ± 2.33 nM. This compound also returned a CC50 at 72 h in “Cytotoxicity, MTT assay” greater than 100 µg/mL. For `O=C(c1ccccc1)N1CCC2(CC1)OOC1(OO2)C2CC3CC(C2)CC1C3` [3d], the IC50 in data set [1] was 7.28 ± 0.57 nM. This compound gave a CC50 at 72 h in “Cytotoxicity, MTT assay” greater than 100 µg/mL. In the case of `O=C(c1ccccc1)N1CCC2(CC1)OOC1(CCCCC1)OO2` [3b], the IC50 in data set [1] came to 17.9 ± 1.96 nM. The same compound returned a CC50 at 72 h in the data set “Cytotoxicity, MTT assay” greater than 100 µg/mL. Turning to `CCCC1(CCC)OOC2(CCN(C(=O)c3ccccc3)CC2)OO1` [3o], the half-maximal inhibitory concentration (IC50) in data set [1] turned out to be 17.3 ± 1.78 nM. Moreover, in the data set “Cytotoxicity, MTT assay”, the CC50 at 72 h is greater than 100 µg/mL. Turning to `CC1(c2ccccc2)OOC2(CCN(C(=O)c3ccccc3)CC2)OO1` [3p], the IC50 in data set [1] is 16.3 ± 0.93 nM. For the same compound, in the data set “Cytotoxicity, MTT assay”, the CC50 at 72 h is greater than 100 µg/mL.

On to `CCCCCC1(C)OOC2(CCN(C(=O)c3ccccc3)CC2)OO1` [3l], for which, in data set [1], the IC50 is 16.7 ± 1.93 nM. The CC50 at 72 h in the data set “Cytotoxicity, MTT assay” is greater than 100 µg/mL. On the same counts, the results for `CCC1(CC)OOC2(CCN(C(=O)c3ccccc3)CC2)OO1` [3m] are 17.5 ± 1.59 nM and greater than 100 µg/mL.
